Laboratory results taken from ChEMBL document CHEMBL4732221, “Design, synthesis and bioactivity evaluation of novel pyrazole linked phenylthiazole derivatives in context of antibacterial activity” (Bioorg Med Chem Lett, 2021).
In brackets after ≈: the same amount, converted by molar mass. Activity calls are given as the source filed them. The calls are words filed in the database; no cut-off is given here.

What was measured:
Acinetobacter baumannii [1] = assay: Antibacterial activity against Acinetobacter baumannii ATCC 19606 assessed as growth inhibition after 18 hrs by monochromator plate assay; type: functional
Pseudomonas aeruginosa [2] = assay: Antibacterial activity against Pseudomonas aeruginosa ATCC 27853 assessed as growth inhibition after 18 hrs by monochromator plate assay; type: functional
Klebsiella pneumoniae [3] = assay: Antibacterial activity against Klebsiella pneumoniae ATCC 700603 assessed as growth inhibition after 18 hrs by monochromator plate assay; type: functional
Escherichia coli [4] = assay: Antibacterial activity against Escherichia coli ATCC 25922 assessed as growth inhibition after 18 hrs by monochromator plate assay; type: functional
Staphylococcus aureus [5] = assay: Antibacterial activity against methicillin-resistant Staphylococcus aureus ATCC 43300 assessed as growth inhibition after 18 hrs by monochromator plate assay; type: functional
Cryptococcus neoformans [6] = assay: Antifungal activity against Cryptococcus neoformans var. grubii ATCC 208821 assessed as growth inhibition at 32 ug/ml after 36 hrs by monochromator plate assay relative to control; type: functional; conditions: dose 32.0 µg/ml
Candida albicans [7] = assay: Antifungal activity against Candida albicans ATCC 90028 assessed as growth inhibition at 32 ug/ml after 36 hrs by monochromator plate assay relative to control; type: functional
Acinetobacter baumannii [8] = assay: Antibacterial activity against Acinetobacter baumannii ATCC 19606 assessed as growth inhibition at 32 ug/ml after 18 hrs by monochromator plate assay relative to control; type: functional; conditions: for inhibition: dose 32.0 µg/ml
Pseudomonas aeruginosa [9] = assay: Antibacterial activity against Pseudomonas aeruginosa ATCC 27853 assessed as growth inhibition at 32 ug/ml after 18 hrs by monochromator plate assay relative to control; type: functional
Klebsiella pneumoniae [10] = assay: Antibacterial activity against Klebsiella pneumoniae ATCC 700603 assessed as growth inhibition at 32 ug/ml after 18 hrs by microplate reader assay relative to control; type: functional; conditions: for inhibition: dose 32.0 µg/ml
Escherichia coli [11] = assay: Antibacterial activity against Escherichia coli ATCC 25922 assessed as growth inhibition at 32 ug/ml after 18 hrs by monochromator plate assay relative to control; type: functional; conditions: dose 32.0 µg/ml
Staphylococcus aureus [12] = assay: Antibacterial activity against methicillin-resistant Staphylococcus aureus ATCC 43300 assessed as growth inhibition at 32 ug/ml after 18 hrs by monochromator plate assay relative to control; type: functional
Candida albicans [13] = assay: Antifungal activity against Candida albicans ATCC 90028 assessed as growth inhibition after 36 hrs by monochromator plate assay; type: functional
Cryptococcus neoformans [14] = assay: Antifungal activity against Cryptococcus neoformans var. grubii ATCC 208821) assessed as growth inhibition after 36 hrs by monochromator plate assay relative to control; type: functional
[15] = Cytotoxicity against HEK293 cells assessed as cell viability after 20 hrs by fluorescence assay; type: cell-based; conditions: human
[16] = (§1) Haemolytic activity against human whole blood after 70 mins by monochromator plate reader; type: ADME, tissue-based; conditions: whole blood
Blood = assay: as §1; type: ADME, tissue-based; conditions: blood, 1.167 h
Enterococcus faecalis = assay: Antibacterial activity against vancomycin resistant Enterococcus faecalis assessed as reduction in bacterial growth by CLSI based broth microdilution method; type: functional; conditions: time 18 hrs
Staphylococcus aureus [17] = assay: Antibacterial activity against methicillin-resistant Staphylococcus aureus assessed as reduction in bacterial growth by CLSI based broth microdilution method; type: functional; conditions: time 18 hrs
[18] = Inhibition of Escherichia coli DNA topoisomerase 4 assessed as reduction in decatenation of kinetoplast DNA measured after 1 hr by agarose gel electrophoresis method
Escherichia coli [19] = assay: Antibacterial activity against Escherichia coli assessed as reduction in bacterial growth by CLSI based broth microdilution method; type: functional; conditions: time 18 hrs
Streptococcus pneumoniae = assay: Antibacterial activity against Streptococcus pneumoniae assessed as reduction in bacterial growth by CLSI based broth microdilution method; type: functional; conditions: time 18 hrs

Compound	MIC (Acinetobacter baumannii [1])	MIC (Pseudomonas aeruginosa [2])	MIC (Klebsiella pneumoniae [3])	MIC (Escherichia coli [4])	MIC (Staphylococcus aureus [5]) [µg/mL]	inhibition (Cryptococcus neoformans [6])	inhibition at 32 µg/mL (Candida albicans [7]) [%]	inhibition at 32 µg/mL (Acinetobacter baumannii [8]) [%]	inhibition at 32 µg/mL (Pseudomonas aeruginosa [9]) [%]	inhibition at 32 µg/mL (Klebsiella pneumoniae [10]) [%]	inhibition (Escherichia coli [11])	inhibition at 32 µg/mL (Staphylococcus aureus [12]) [%]	MIC (Candida albicans [13]) [µg/mL]	MIC (Cryptococcus neoformans [14])	inhibition (Klebsiella pneumoniae [10])	also measured
Cc1nc(-c2ccc(-c3ccccc3)cc2)sc1-c1cc(C(=O)Nc2ccccc2)n[nH]1	> 32 µg/mL	> 32 µg/mL	> 32 µg/mL	inactive	4 (≈ 9.16 µM)	inactive	9.6	1.6	16.6	9.9	inactive	85.1	> 32	inactive		CC50 at 20 h [15]: > 32 µg/mL; HC50 at 1.167 h [16]: > 32 µg/mL; HC10 (Blood): > 32 µg/mL
c1ccc(COc2ccc(-c3cc(C4CCNCC4)[nH]n3)cc2)cc1																MIC (Enterococcus faecalis): 64 µg/mL (≈ 192 µM); MIC (Staphylococcus aureus [17]): 64 µg/mL (≈ 192 µM); IC50 [18]: 128 µg/mL (≈ 384 µM)
CC[C@H](C)[C@H](NC(=O)CN)C(=O)NCC(=O)N[C@@H](C)C(=O)N[C@H](C(=O)N[C@@H](CC(C)C)C(=O)N[C@@H](CCCCN)C(=O)N[C@H](C(=O)N[C@@H](CC(C)C)C(=O)N[C@H](C(=O)N[C@H](C(=O)NCC(=O)N[C@@H](CC(C)C)C(=O)N1CCC[C@H]1C(=O)N[C@@H](C)C(=O)N[C@@H](CC(C)C)C(=O)N[C@H](C(=O)N[C@@H](CO)C(=O)N[C@@H](Cc1c[nH]c2ccccc12)C(=O)N[C@H](C(=O)N[C@@H](CCCCN)C(=O)N[C@@H](CCCNC(=N)N)C(=O)N[C@@H](CCCCN)C(=O)N[C@@H](CCCNC(=N)N)C(=O)N[C@@H](CCC(N)=O)C(=O)N[C@@H](CCC(N)=O)C(N)=O)[C@@H](C)CC)[C@@H](C)CC)[C@@H](C)O)[C@@H](C)O)C(C)C)C(C)C [MELITTIN]																HC50 at 1.167 h [16]: 8.5 µg/mL; HC10 (Blood): 2.7 µg/mL
Clc1cccc(-n2nc(C3CCNCC3)cc2/C=C/c2c[nH]c3ccc(Cl)cc23)c1																MIC (Escherichia coli [19]): 16 µg/mL (≈ 36.6 µM); MIC (Enterococcus faecalis): 2 µg/mL (≈ 4.57 µM); MIC (Streptococcus pneumoniae): 2 µg/mL (≈ 4.57 µM); MIC (Staphylococcus aureus [17]): 2 µg/mL (≈ 4.57 µM)
CCOC(=O)c1cc(-c2sc(-c3ccc(-c4ccccc4)cc3)nc2C)[nH]n1	> 32 µg/mL	> 32 µg/mL	inactive	inactive	> 32	inactive	5.6	2.8	1.5		inactive	13.6	> 32	inactive	inactive	
Cc1ccc(-c2ccc(-c3nc(C)c(-c4cc(C(=O)NC5CCCCC5)n[nH]4)s3)cc2)cc1	> 32 µg/mL	> 32 µg/mL	> 32 µg/mL	inactive	> 32	inactive	18.9	4.3	16.5	12.2	inactive	23.8	> 32	inactive		
Cc1nc(-c2ccc(-c3ccccc3)cc2)sc1-c1cc(C(=O)NNc2ccccc2)n[nH]1	> 32 µg/mL	inactive	inactive	inactive	> 32	inactive	17.8	5.5			inactive	8.2	> 32	inactive	inactive	inhibition (Pseudomonas aeruginosa [9]; dose 32.0 µg/ml): inactive
Cc1cccc(-c2ccc(-c3nc(C)c(-c4cc(C(=O)NC5CCCCC5)n[nH]4)s3)cc2)c1C	inactive	> 32 µg/mL	inactive	inactive	32 (≈ 68 µM)	inactive	6.1		7.1		inactive	7.2	> 32	inactive	inactive	inhibition (Acinetobacter baumannii [8]): inactive
Cc1nc(-c2ccc(-c3ccccc3)cc2)sc1-c1cc(C(=O)Nc2ccc(C(C)(C)C)cc2)n[nH]1	> 32 µg/mL	> 32 µg/mL	> 32 µg/mL	inactive	> 32	inactive	5.2	3	2.2	5.2	inactive	13.2	> 32	inactive		
Cc1nc(-c2ccc(-c3ccccc3)cc2)sc1-c1cc(C(=O)Nc2ccc(C(F)(F)F)cc2)n[nH]1	inactive	> 32 µg/mL	> 32 µg/mL	inactive	> 32	inactive	4.3		2.8	0.8	inactive	9.9	> 32	inactive		inhibition (Acinetobacter baumannii [8]): inactive
